Assay results published in patent US20080234341A1, “Carisoprodol and Phenytoin Methods” (MUTUAL PHARMACEUTICAL COMPANY, INC., priority 2006, published 2008).

Legend:
[1] = cited from earlier work
[2] = tested on: plasma proteins in the bloodstream such as albumin; details: cited from earlier work
[3] = cited from earlier work; remark: listed apart in the source
[4] = Single-dose two-way crossover study of phenytoin pharmacokinetics, alone or co-administered with carisoprodol; details: human, in vivo; for half-life / Tmax: least sq. mean
Experimental: The study was designed as a randomized, single-dose two-way crossover to compare the pharmacokinetic parameters of carisoprodol (350 mg SOMA® (carisoprodol) Tablets by MedPointe Pharmaceuticals, MedPointe Healthcare Inc.) and phenyloin (PROMPT® Phenyloin Sodium 100 mg Capsules by IVAX Pharmaceuticals, Inc.). Twelve healthy adults participated in this comparison study and all of the subjects completed the study.
Subjects received two separate drug administration treatments in assigned periods, one treatment per period, according to the randomization schedule. Treatment (A) was 3 PROMPT® Phenyloin Sodium 100 mg capsules with 240 mL of room temperature water after an overnight fast. Treatment (B) was 3 PROMPT® Phenyloin Sodium 100 mg capsules and 2 tablets of SOMA® (carisoprodol 350 mg tablets) after an overnight fast.
Dosing days were separated by a washout period of at least fourteen days. Blood samples were drawn prior to dosing (pre-dose) and at 0.5, 1, 1.5, 2, 2.5, 3, 3.5, 4, 4.5, 5, 6, 7, 8, 10, 12, 18, 24, and 48 hours post-dose. The samples were then analyzed for total phenyloin. At study hours 2, 4, 6, 12 and 24 an additional blood sample was collected for the determination of “free” phenyloin.
The area under the plasma concentration versus time curve [AUCt] may be calculated using the linear trapezoidal rule from the zero time point to the last measured concentration.
The area under the plasma concentration versus time curve from zero to infinity [AUC0-INF] may be calculated by adding Ct/Kelm to AUC where Ct is the last measured concentration and Kelm is the elimination rate constant.
The maximum observed plasma concentration [Cmax] may be obtained by inspection.
The time to maximum plasma concentration [Tmax] may be obtained by inspection. If the same maximum plasma concentration occurs at more than one time point, the first may be chosen as Tmax.
The terminal elimination rate constant [Kelm] may be obtained from the slope of the line, fitted by linear least squares regression, through the terminal points of the ln(base e) of the concentration versus time plot for these points.
The half-life [T1/2] may be calculated by the equation T1/2=0.693/Kelm.

[5] = Drug interaction study: carisoprodol added to a steady-state regimen of phenytoin; details: human, in vivo; for half-life / Tmax: least sq. mean
Experimental: A single-arm, two-way drug interaction study was conducted in which carisoprodol (350 mg SOMA®) was added to a steady state regimen of phenyloin (PROMPT® Phenyloin Sodium 100 mg Capsules). The effects of coadministration of carisoprodol at steady state conditions on the Cmax and AUC of phenyloin are summarized in Table 5. Twenty-four healthy adults participated in this comparison study and twenty-one of the subjects completed the study.
On study Days 1 through 14, a single 300 mg (1×300 mg capsule) dose of phenyloin sodium was administered to all study subjects following an overnight fast of at least 10 hours.
On study Days 15 through 28, a single 300 mg (1×300 mg capsule) dose of phenyloin sodium and a single 350 mg (1×350 mg tablet) dose of carisoprodol were co-administered to all study subjects following an overnight fast of at least 10 hours. A single dose of carisoprodol was re-administered to all study subjects 3 more times a day (every 6 hours) for Days 15 through 28.
Phenyloin: On study Days 14 and 28, 18 blood samples were collected (6 mL each) from each subject by direct venipuncture using pre-labeled Vacutainers® containing K2 EDTA as an anticoagulant. Blood samples were collected within one hour prior to dosing and after dose administration at study hours 0.5, 1, 1.5, 2, 2.5, 3, 3.5, 4, 4.5, 5, 6, 7, 8, 10, 12, 18, and 24.

SMILES: CCCC(C)(COC(N)=O)COC(=O)NC(C)C (centres unmarked) [Carisoprodol, N-isopropyl-2-methyl-2-propyl-1,3-propanediol dicarbamate]
- solubility in alcohol, chloroform, and acetone (descriptive) ([1]; alcohol, chloroform, acetone): freely soluble
- solubility in water (descriptive) ([1]; water): very sparingly soluble

SMILES: O=C1NC(=O)C(c2ccccc2)(c2ccccc2)N1 [Phenytoin, 5,5-diphenylhydantoin]
- bound to plasma proteins [2]: about 90%
- typical clinically effective serum level of unbound or free phenytoin (therapeutic range) ([3]; free phenytoin): 1 to 2 µg/mL
- typical clinically effective serum level of total phenytoin (therapeutic range) ([3]; total phenytoin): 10 to 20 µg/mL
- AUC0-INF, free phenytoin, geometric mean [4]: 12927.88 ng·h/mL
- AUC0-t, free phenytoin, geometric mean [4]: 5150.25 ng·h/mL
- AUC(0-inf) [4]: 134000 ng·h/mL
- AUC(0-t) [4]: 97300 ng·h/mL
- Cmax, total phenytoin, geometric mean [4]: 3222.2 ng/mL
- Kelm, total phenytoin, least sq. mean [4]: 0.03395
- kelm, free phenytoin, least sq. mean [4]: 0.0279
- half-life ([4]; T1/2, free phenytoin): 35.8 h
- half-life ([4]; T1/2, total phenytoin): 23.9 h
- Tmax ([4]; free phenytoin): 9.17 h
- Tmax ([4]; total phenytoin): 7.44 h
- AUC0-INF, free steady-state phenytoin, geometric mean [5]: 32701.49 ng·h/mL
- AUC0-t, free steady-state phenytoin, geometric mean [5]: 14733.48 ng·h/mL
- Cmax, total steady-state phenytoin, geometric mean [5]: 13604.17 ng/mL
- kelm, free steady-state phenytoin, least sq. mean [5]: 0.0312
- kelm, total steady-state phenytoin, least sq. mean [5]: 0.0233
- Cmax, free steady-state phenytoin, geometric mean ([5]; 350 mg): 929.76 ng/mL
- half-life ([5]; T1/2, free steady-state phenytoin): 35.4 h
- half-life ([5]; T1/2, total steady-state phenytoin): 39.4 h
- Tmax ([5]; free steady-state phenytoin): 5.04 h
- Tmax ([5]; total steady-state phenytoin): 3.55 h
